Results from US8710089B2, “Triazole derivatives as ghrelin analogue ligands of growth hormone secretagogue receptors” (Zentaris GmbH, priority 2005, dated 2014).

Target: T1, human GHS-R 1a (Homo sapiens, UniProt Q92847)
T1 construct: expressed in transfected cells; host or cells: LLC PK-1 porcine renal epithelial cells (ECACC No. 86121112), isolated plasma membranes
Assay: GHS-R 1a receptor-ligand binding assay (membrane preparations from transfected LLC PK-1 cells)
Details: displacement of 125I-His9-ghrelin (60 pM); membranes of LLC PK-1 cells transfected with human GHS-R 1a; mean of at least two independent experiments in triplicates
Protocol: (J. Med. […] Med. Chem. 2003, 46: 1191-1203), were incubated in homogenization buffer HB [50 mM Tris (pH 7.3), 5 mM MgCl2, 2.5 mM EDTA, and 30 μg/mL bacitracin (Sigma)] for 60 min at 25° C. (steady-state conditions) with 60 pM ^125I-[…]-ghrelin (Amersham) in the presence or absence of competing compounds (compounds of the invention). […] Nonspecific binding was defined using an excess (10^-6 M) of ghrelin. The binding reaction was stopped by addition of 4 mL of ice-cold HB followed by rapid filtration over Whatman GP/C filters presoaked with 0.5% polyethyleneimine to prevent excessive binding of radioligand to the filters. […] IC50 values given are the mean of at least two independent experiments performed in triplicates.

T1 sequence (Q92847 whole entry): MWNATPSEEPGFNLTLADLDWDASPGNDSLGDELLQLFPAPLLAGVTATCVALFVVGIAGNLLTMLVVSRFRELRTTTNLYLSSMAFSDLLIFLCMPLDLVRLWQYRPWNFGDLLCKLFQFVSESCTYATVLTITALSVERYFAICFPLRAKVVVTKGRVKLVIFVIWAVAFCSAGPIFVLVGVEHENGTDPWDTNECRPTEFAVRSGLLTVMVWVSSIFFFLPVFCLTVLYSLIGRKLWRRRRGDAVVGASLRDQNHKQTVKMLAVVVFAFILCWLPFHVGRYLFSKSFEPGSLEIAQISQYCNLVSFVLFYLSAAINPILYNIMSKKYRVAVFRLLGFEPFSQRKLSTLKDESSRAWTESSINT

Row | SMILES | IC50 [nM]
1 | CC(C)(N)C(=O)N[C@H](COCc1ccccc1)c1nnnn1Cc1ccccc1 [Example from page 175, WO 00/54729 A2, (S)—N-(1-(1-benzyl-tetrazol-5-yl)-2-(benzyloxy)ethyl)-2-amino-2-methylpropanamide, reference compound] | ~25000
2 | CC(C)(N)C(=O)N[C@H](Cc1c[nH]c2ccccc12)c1nnc(CCc2ccccc2)n1Cc1ccccc1 [compound 173, N—((R)-1-(4-benzyl-5-phenethyl-4H-1,2,4-triazol-3-yl)-2-(1H-indol-3-yl)ethyl)-2-amino-2-methylpropanamide] | 114
3 | CCc1ccc(Cn2c(CCc3ccccc3)nnc2[C@@H](Cc2c[nH]c3ccccc23)NC(=O)c2ccccn2)cc1 [compound 138, N—((R)-1-(4-(4-ethylbenzyl)-5-phenethyl-4H-1,2,4-triazol-3-yl)-2-(1H-indol-3-yl)ethyl)picolinamide] | 44
4 | COC(=O)CCn1nnnc1[C@@H](Cc1c[nH]c2ccccc12)NC(=O)C(C)(C)N [Example 3 from WO 00/54729 A2, (R)—N-(1-(1-methylpropanoate-tetrazol-5-yl)-2-(1H-indol-3-yl)ethyl)-2-amino-2-methylpropanamide, reference compound] | ~3000
5 | CC(C)(C)Sc1nnc([C@@H](COCc2ccccc2)NC(=O)C(C)(C)N)n1Cc1ccccc1 [Example 8 from WO 00/54729 A2, (S)—N-(1-(4-benzyl-5-(tert-butylthio)-1,2,4-triazol-3-yl)-2-(benzyloxy)ethyl)-2-amino-2-methylpropanamide, reference compound] | ~20000
6 | CC(C)(N)C(=O)N[C@H](Cc1c[nH]c2ccccc12)c1nnc(CCc2c[nH]c3ccccc23)n1Cc1ccc(Br)cc1 [compound 92, (R)—N-(1-(5-(2-(1H-indol-3-yl)ethyl)-4-(4-bromobenzyl)-4H-1,2,4-triazol-3-yl)-2-(1H-indol-3-yl)ethyl)-2-amino-2-methylpropanamide] | 200
7 | CC(C)(N)C(=O)N[C@H](Cc1c[nH]c2ccccc12)c1nnc(CCc2c[nH]c3ccccc23)n1Cc1ccc(F)cc1 [compound 29, (R)—N-(1-(5-(2-(1H-indol-3-yl)ethyl)-4-(4-fluorobenzyl)-4H-1,2,4-triazol-3-yl)-2-(1H-indol-3-yl)ethyl)-2-amino-2-methylpropanamide] | 66
8 | COc1ccc(Cn2c(CCc3c[nH]c4ccccc34)nnc2[C@@H](Cc2c[nH]c3ccccc23)NC(=O)[C@H]2CCCCN2)cc1 [compound 88, (R)—N—((R)-1-(5-(2-(1H-indol-3-yl)ethyl)-4-(4-methoxybenzyl)-4H-1,2,4-triazol-3-yl)-2-(1H-indol-3-yl)ethyl)piperidine-2-carboxamide] | 29
9 | COc1ccc(Cn2c(CCc3c[nH]c4ccccc34)nnc2[C@@H](Cc2c[nH]c3ccccc23)NC(=O)[C@@H]2C=CCN2)cc1 [compound 190, (2S)—N—((R)-1-(5-(2-(1H-indol-3-yl)ethyl)-4-(4-methoxybenzyl)-4H-1,2,4-triazol-3-yl)-2-(1H-indol-3-yl)ethyl)-2,5-dihydro-1H-pyrrole-2-carboxamide] | 12
10 | CCCCCCn1c(CCCc2c[nH]c3ccccc23)nnc1[C@@H](Cc1c[nH]c2ccccc12)NC(=O)C(C)(C)N [compound 16, (R)—N-(1-(5-(3-(1H-indol-3-yl)propyl)-4-hexyl-4H-1,2,4-triazol-3-yl)-2-(1H-indol-3-yl)ethyl)-2-amino-2-methylpropanamide] | 240
11 | COc1ccc(Cn2c(CCc3ccccc3)nnc2[C@@H](Cc2c[nH]c3ccccc23)NC(=O)Cc2ccccn2)cc1 [compound 51, (R)—N-(1-(4-(4-methoxybenzyl)-5-phenethyl-4H-1,2,4-triazol-3-yl)-2-(1H-indol-3-yl)ethyl)-2-(pyridin-2-yl)acetamide] | 3
12 | COc1ccc(Cn2c(CCc3c[nH]c4ccccc34)nnc2[C@@H](Cc2c[nH]c3ccccc23)NC(=O)Cc2ccncc2)cc1 [compound 136, N—((R)-1-(5-(2-(1H-indol-3-yl)ethyl)-4-(4-methoxybenzyl)-4H-1,2,4-triazol-3-yl)-2-(1H-indol-3-yl)ethyl)-2-(pyridin-4-yl)acetamide] | 106
13 | COc1cccc(Cn2c(CCCc3c[nH]c4ccccc34)nnc2[C@@H](Cc2c[nH]c3ccccc23)NC(=O)C(C)(C)N)c1 [compound 10, (R)—N-(1-(5-(3-(1H-indol-3-yl)propyl)-4-(3-methoxybenzyl)-4H-1,2,4-triazol-3-yl)-2-(1H-indol-3-yl)ethyl)-2-amino-2-methylpropanamide] | 32
14 | COc1ccc(Cn2c(CCc3ccccc3)nnc2[C@@H](Cc2c[nH]c3ccccc23)NC(=O)[C@H](C)N)cc1 [compound 57, (S)—N—((R)-1-(4-(4-methoxybenzyl)-5-phenethyl-4H-1,2,4-triazol-3-yl)-2-(1H-indol-3-yl)ethyl)-2-aminopropanamide] | 140
15 | COc1cc(Cn2c(Cc3ccccc3)nnc2[C@@H](Cc2c[nH]c3ccccc23)NC(=O)C(C)(C)N)cc(OC)c1 [compound 108, (R)—N-(1-(4-(3,5-dimethoxybenzyl)-5-benzyl-4H-1,2,4-triazol-3-yl)-2-(1H-indol-3-yl)ethyl)-2-amino-2-methylpropanamide] | 250
16 | CC(C)(N)C(=O)N[C@H](Cc1c[nH]c2ccccc12)c1nnc(CCCc2c[nH]c3ccccc23)n1Cc1ccc(Br)cc1 [compound 14, (R)—N-(1-(5-(3-(1H-indol-3-yl)propyl)-4-(4-bromobenzyl)-4H-1,2,4-triazol-3-yl)-2-(1H-indol-3-yl)ethyl)-2-amino-2-methylpropanamide] | 150
17 | O=C(N[C@H](Cc1c[nH]c2ccccc12)c1nnc(CCc2c[nH]c3ccccc23)n1-c1ccccc1)C1CCNCC1 [compound 158, N—((R)-1-(5-(2-(1H-indol-3-yl)ethyl)-4-phenyl-4H-1,2,4-triazol-3-yl)-2-(1H-indol-3-yl)ethyl)piperidine-4-carboxamide] | 70
18 | COc1ccc(Cn2c(CCc3c[nH]c4ccccc34)nnc2[C@@H](Cc2c[nH]c3ccccc23)NC(=O)[C@@H]2CCCN2)c(OC)c1 [compound 70, (S)—N—((R)-1-(5-(2-(1H-indol-3-yl)ethyl)-4-(2,4-dimethoxybenzyl)-4H-1,2,4-triazol-3-yl)-2-(1H-indol-3-yl)ethyl)pyrrolidine-2-carboxamide] | 6
19 | O=C(N[C@H](Cc1c[nH]c2ccccc12)c1nnc(Cc2ccccc2)n1Cc1ccccn1)c1ccccn1 [compound 164, N—((R)-1-(5-benzyl-4-((pyridin-2-yl)methyl)-4H-1,2,4-triazol-3-yl)-2-(1H-indol-3-yl)ethyl)picolinamide] | 207
20 | CC(C)(N)C(=O)N[C@H](Cc1c[nH]c2ccccc12)c1nnc(CCc2c[nH]c3ccccc23)n1Cc1ccccc1 [compound 8, (R)—N-(1-(5-(2-(1H-indol-3-yl)ethyl)-4-benzyl-4H-1,2,4-triazol-3-yl)-2-(1H-indol-3-yl)ethyl)-2-amino-2-methylpropanamide] | 18
21 | CCc1ccc(-n2c(CCc3c[nH]c4ccccc34)nnc2[C@@H](Cc2c[nH]c3ccccc23)NC(=O)c2ccccn2)cc1 [compound 147, N—((R)-1-(5-(2-(1H-indol-3-yl)ethyl)-4-(4-ethylphenyl)-4H-1,2,4-triazol-3-yl)-2-(1H-indol-3-yl)ethyl)picolinamide] | 49
22 | COc1ccc(Cn2c(CCc3ccccc3)nnc2[C@@H](Cc2c[nH]c3ccccc23)NC(=O)c2ccc(N=[N+]=[N-])cc2)c(OC)c1 [compound 188, N—((R)-1-(4-(2,4-dimethoxybenzyl)-5-phenethyl-4H-1,2,4-triazol-3-yl)-2-(1H-indol-3-yl)ethyl)-4-azidobenzamide] | 87
23 | COc1ccc(Cn2c(CCc3ccccc3)nnc2[C@@H](Cc2c[nH]c3ccccc23)NC(=O)Cc2cccnc2)cc1 [compound 58, (R)—N-(1-(4-(4-methoxybenzyl)-5-phenethyl-4H-1,2,4-triazol-3-yl)-2-(1H-indol-3-yl)ethyl)-2-(pyridin-3-yl)acetamide] | 29
24 | COc1ccc(Cn2c(CCc3ccccc3)nnc2[C@@H](Cc2c[nH]c3ccccc23)NC(=O)c2ccncc2)c(OC)c1 [compound 65, (R)—N-(1-(4-(2,4-dimethoxybenzyl)-5-phenethyl-4H-1,2,4-triazol-3-yl)-2-(1H-indol-3-yl)ethyl)isonicotinamide] | 58
25 | O=C(N[C@H](Cc1c[nH]c2ccccc12)c1nnc(CCc2c[nH]c3ccccc23)n1-c1ccccc1)c1ccccn1 [compound 157, N—((R)-1-(5-(2-(1H-indol-3-yl)ethyl)-4-phenyl-4H-1,2,4-triazol-3-yl)-2-(1H-indol-3-yl)ethyl)picolinamide] | 160
26 | COc1ccc(-n2c(CCc3ccccc3)nnc2[C@@H](Cc2c[nH]c3ccccc23)NC(=O)Cc2ccccn2)c(OC)c1 [compound 160, N—((R)-2-(1H-indol-3-yl)-1-(4-(2,4-dimethoxyphenyl)-5-phenethyl-4H-1,2,4-triazol-3-yl)ethyl)-2-(pyridin-2-yl)acetamide] | 121
27 | CC(C)(N)C(=O)N[C@H](Cc1c[nH]c2ccccc12)c1nnc(CCc2c[nH]c3ccccc23)n1Cc1cccc2ccccc12 [compound 5, (R)—N-(1-(5-(2-(1H-indol-3-yl)ethyl)-4-(naphthalen-1-ylmethyl)-4H-1,2,4-triazol-3-yl)-2-(1H-indol-3-yl)ethyl)-2-amino-2-methylpropanamide] | 125
